According to paper PMC12040169 (PLOS Biology, 2025):

Columns and labels:
[1] = tested on: T1, C. trachomatis L2/434/Bu expressing GFP (CTL2-GFP); assay: microbe, parasite or virus in culture; design: C. trachomatis total inclusion area by high-content imaging, normalised to DMSO; conditions: Chlamydia trachomatis, HeLa, 28.5 h; total inclusion area; read-out: % of control remaining
T1 construct: L2/434/Bu GFP intracellular growth in HeLa cells
Outline: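 Read-out combines bulk fluorescence and imaging: GFP tracks chlamydial growth, resorufin tracks host cell viability. Plates were then fixed and Hoechst-stained so inclusions and nuclei could be imaged and counted per well.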

[2] = tested on: T2, CTL2-GFP (C. trachomatis L2/434/Bu, GFP-expressing); assay: microbe, parasite or virus in culture; design: Intracellular C. trachomatis growth in HeLa cells, bulk GFP fluorescence relative to DMSO; conditions: Chlamydia trachomatis, HeLa, 28.5 h; bulk GFP, mean of 2; read-out: % of control remaining
T2 construct: L2/434/Bu, GFP-expressing
Method: MICs were calculated as described above.

in vitro [3] = assay: in vitro; design: Viability of infected HeLa host cells, resazurin conversion, bulk resorufin fluorescence relative to DMSO; conditions: human, hela cells; bulk resorufin, mean of 2
in vitro [4] = conditions: human, hela cells, % viability

| Structure (SMILES) | activity at 1 µM [1] [%] | activity at 5 µM [1] [%] | activity at 10 µM [1] [%] | activity at 1 µM [2] [%] | activity at 5 µM [2] [%] | activity at 10 µM [2] [%] | viability at 28.5 h, 1 µM (in vitro [3]) [%] | viability at 28.5 h, 5 µM (in vitro [3]) [%] | viability at 28.5 h, 10 µM (in vitro [3]) [%] | viability at 28.5 h, 10 µM (in vitro [4]) [%] |
| --- | --- | --- | --- | --- | --- | --- | --- | --- | --- | --- |
| CC(=O)NC[C@H]1CN(c2ccc(-c3nnc(CCC#N)s3)c(F)c2)C(=O)O1 [CBK017926] | 15.4 | 0.206 | 0.193 | 19.4 | 2.09 | 3.05 | 93.8 | 92 | 95.7 | 87.1 |
| O=C(Nc1cccc2c(NC(=O)N3CCCCC3)cccc12)N1CCCCC1 [CBK010775] | 97.8 | 43.6 | 23.8 | 130 | 67.1 | 38.3 | 89.2 | 88.8 | 84.5 | 109 |
| NCCCNc1ncc(C(=O)NCc2ccccc2)c(NCC2CCCCC2)n1 [CBK215386] | 95.7 | 73.1 | 19.8 | 97.9 | 89.2 | 32.4 | 113 | 116 | 96.6 | 103 |
| Cc1csc(SC(C)C(=O)N2CCc3ccccc32)n1 (stereo not shown) [CBK305909] | 112 | 49.8 | 42.5 | 143 | 149 | 132 | 94.1 | 91.9 | 89.5 | 98.8 |
| N=c1c2c(-c3ccccc3)c(-c3ccccc3)n(Cc3ccccc3)c2ncn1CCN1CCOCC1 [CBK268537] | 119 | 66.8 | 34.6 | 123 | 83 | 70.7 | 94.8 | 97.8 | 93.4 | 92 |
| Fc1cccc(F)c1OCCOc1nc(N2CCNCC2)ccc1C(F)(F)F [CBK003977A] | 53.4 | 9.38 | 1.96 | 86.2 | 37.8 | 27.8 | 92.3 | 90.5 | 89.4 | 87 |
| Cc1cc(C)nc(NS(=O)(=O)c2ccc(NC(=O)N3c4ccccc4Sc4ccccc43)cc2)n1 [CBK263922] | 112 | 51.2 | 28.5 | 115 | 67.1 | 28.2 | 92.3 | 90.2 | 89.4 | 101 |
| Cc1ccc(S(=O)(=O)Nc2cc(SCC(=O)O)c(O)c3ccccc23)cc1 [CBK265708] | 75.1 | 34.7 | 13.4 | 92.1 | 51.3 | 33 | 103 | 99.6 | 97.8 | 87.1 |
| CC1=NN(c2ccc(C)cc2)C(=O)/C1=C\Nc1ccc(S(=O)(=O)Nc2nc(C)cc(C)n2)cc1 [CBK262398] | 91.7 | 40.5 | 18 | 83.6 | 16.3 | 2.4 | 94.6 | 99.4 | 118 | 92.8 |
| Cc1nc(C(=N)N)nc2ccccc12 [CBK010368C] | 60.8 | 35.9 | 41.3 | 94.1 | 66.1 | 65.1 | 98.3 | 94.3 | 88.2 | 86.3 |
| Cc1ccc(Cn2c(=N)n(CC(=O)c3cc(C(C)(C)C)c(O)c(C(C)(C)C)c3)c3ccccc32)cc1 [CBK262458B] | 99.9 | 36.5 | 52 | 127 | 56.5 | 91.9 | 92.1 | 96.7 | 101 | 82.6 |
| CN1CCCN(c2ccc(NS(=O)(=O)c3cccc(F)c3)c3ccccc23)CC1 [CBK200010C] | 77.8 | 43.7 | 26.8 | 108 | 66.2 | 43.7 | 94.4 | 100 | 95.1 | 84.9 |
| Cc1noc(NS(=O)(=O)c2ccc(N/C=C\C(=O)c3cccnc3)cc2)c1C [CBK264285] | 69.7 | 26.3 | 17.9 | 72.6 | 13.6 | 11.8 | 106 | 103 | 104 | 102 |
| c1ccc2c3c([nH]c2c1)C1(CCN(CCC2CCCCC2)C1)OCC3 (stereo not shown) [CBK061789] | 51.4 | 5.37 | 3.22 | 168 | 72.4 | 23.7 | 92.9 | 90 | 84.9 | 83.3 |
| Cc1ccc(C(=O)NC2CCCC2)cc1[N+](=O)[O-] [CBK001993] | 116 | 89.8 | 50.4 | 123 | 123 | 110 | 112 | 110 | 104 | 102 |
| NCc1ccc2cccc(O)c2n1 [CBK001376T] | 66.3 | 31.4 | 6.97 | 80.5 | 19.7 | 1.06 | 109 | 112 | 110 | 85.6 |
| Cc1ccc(C(=O)/C=C\Nc2ccc(S(=O)(=O)Nc3cc(C)nc(C)n3)cc2)cc1 [CBK264384] | 79.2 | 51.7 | 35.8 | 110 | 72.4 | 31.8 | 107 | 108 | 104 | – |
| CC(C(=O)N1CCC2(CC1)NC(=O)c1ccccc1N2)(c1ccccc1)c1ccccc1 [CBK286308] | 82.6 | 44.9 | 28.3 | 96.5 | 59.6 | 46.3 | 97.7 | 93.1 | 101 | – |
| CCC(CN1CCCC1)NC(=O)Cc1ccc(OC)c(C)c1 (stereo not shown) [CBK282752] | 108 | 47.2 | 26.1 | 100 | 50.3 | 19.9 | 108 | 112 | 108 | – |
| Cc1cc(C)nc(NS(=O)(=O)c2ccc(Nc3ccc4nonc4c3[N+](=O)[O-])cc2)n1 [CBK261444] | 130 | 121 | 67.5 | 132 | 92.2 | 60.3 | 92.5 | 86.4 | 79.7 | – |
| OC(CN1CCOCC1)Cn1c(-c2ccccc2)c(-c2ccccc2)c2ccc3ccccc3c21 (stereo not shown) [CBK263996G] | 101 | 73.2 | 61.6 | 113 | 96.6 | 91.1 | 90.5 | 92.4 | 89.5 | – |
| CC(C)(CN)CN(Cc1c[nH]c(-c2ccccc2)n1)C(=O)Nc1ccc(C(C)(C)C)cc1 [CBK002462C] | 106 | 55.9 | 29 | 139 | 101 | 29.5 | 91.6 | 89.2 | 72.5 | – |
| COc1ccc(C(=O)NNC(=O)/C=C/c2ccc(C(C)C)cc2)cc1 [CBK261697] | 121 | 97.3 | 48.1 | 111 | 98 | 43.2 | 95 | 95.5 | 94.3 | – |
